In the supplement of paper PMC4862054:

Legend:
Conditions in all cases: incubation time: 72 h
MCF-10A [1] = assay: normalised response (% of control), CellTiter-Glo; higher = more viable cells (100 = DMSO, 0 = benzethonium chloride kill control)
How it was run: (§1)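 After 72 h with compound in 384-well plates, breast cancer cell lines seeded as 20 µl suspension were read for CellTox Green fluorescence at 485/520 nm. CellTiter-Glo luminescence was then read after 10 min at room temperature. Compound was present at 5 concentrations in 10-fold steps over a 10,000-fold range set per compound, and plates were normalised to 0.1 % DMSO (100) and a positive kill control (0). Values are normalised signals, each at a single concentration.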

BT-549 [2] = assay: as above
How it was run: as §1

SK-BR-3 = assay: as above
How it was run: as §1

HCC1937 [3] = assay: as above
How it was run: as §1

CAL-85-1 [4] = assay: as above
How it was run: as §1

DU-4475 [5] = assay: as above
How it was run: as §1

CAL-120 [6] = assay: as above
How it was run: as §1

Hs578T [7] = assay: as above
How it was run: as §1

CAL-51 [8] = assay: as above
How it was run: as §1

MDA-MB-231 [9] = assay: as above
How it was run: as §1

MFM-223 [10] = assay: as above
How it was run: as §1

MDA-MB-453 [11] = assay: as above
How it was run: as §1

CAL-148 [12] = assay: as above
How it was run: as §1

MDA-MB-436 [13] = assay: as above
How it was run: as §1

HCC1599 [14] = assay: as above
How it was run: as §1

HDQ-P1 [15] = assay: as above
How it was run: as §1

MDA-MB-468 [16] = assay: as above
How it was run: as §1

BT-474 [17] = assay: as above
How it was run: as §1

HCC1143 [18] = assay: as above
How it was run: as §1

MCF-10A [19] = assay: normalised response (% of control), CellTox Green; higher = less cell death (100 = DMSO, 0 = benzethonium chloride kill control)
How it was run: as §1

BT-549 [20] = assay: as above
How it was run: as §1

HCC1937 [21] = assay: as above
How it was run: as §1

CAL-85-1 [22] = assay: as above
How it was run: as §1

DU-4475 [23] = assay: as above
How it was run: as §1

CAL-120 [24] = assay: as above
How it was run: as §1

Hs578T [25] = assay: as above
How it was run: as §1

CAL-51 [26] = assay: as above
How it was run: as §1

MDA-MB-231 [27] = assay: as above
How it was run: as §1

MFM-223 [28] = assay: as above
How it was run: as §1

MDA-MB-453 [29] = assay: as above
How it was run: as §1

CAL-148 [30] = assay: as above
How it was run: as §1

MDA-MB-436 [31] = assay: as above
How it was run: as §1

HCC1599 [32] = assay: as above
How it was run: as §1

HDQ-P1 [33] = assay: as above
How it was run: as §1

MDA-MB-468 [34] = assay: as above
How it was run: as §1

BT-474 [35] = assay: as above
How it was run: as §1

HCC1143 [36] = assay: as above
How it was run: as §1

Compound | normalised response (MCF-10A [1]) | normalised response (BT-549 [2]) | normalised response (SK-BR-3) | normalised response (HCC1937 [3]) | normalised response (CAL-85-1 [4]) | normalised response (DU-4475 [5]) | normalised response (CAL-120 [6]) | normalised response (Hs578T [7]) | normalised response (CAL-51 [8]) | normalised response (MDA-MB-231 [9]) | normalised response (MFM-223 [10]) | normalised response (MDA-MB-453 [11]) | normalised response (CAL-148 [12]) | normalised response (MDA-MB-436 [13]) | normalised response (HCC1599 [14]) | normalised response (HDQ-P1 [15]) | normalised response (MDA-MB-468 [16]) | normalised response (BT-474 [17]) | normalised response (HCC1143 [18]) | normalised response (MCF-10A [19]) | normalised response (BT-549 [20]) | normalised response (HCC1937 [21]) | normalised response (CAL-85-1 [22]) | normalised response (DU-4475 [23]) | normalised response (CAL-120 [24]) | normalised response (Hs578T [25]) | normalised response (CAL-51 [26]) | normalised response (MDA-MB-231 [27]) | normalised response (MFM-223 [28]) | normalised response (MDA-MB-453 [29]) | normalised response (CAL-148 [30]) | normalised response (MDA-MB-436 [31]) | normalised response (HCC1599 [32]) | normalised response (HDQ-P1 [33]) | normalised response (MDA-MB-468 [34]) | normalised response (BT-474 [35]) | normalised response (HCC1143 [36])
NS(=O)(=O)OC[C@@H]1C[C@@H](n2ccc3c(N[C@H]4CCc5ccccc54)ncnc32)C[C@@H]1O [Pevonedistat] (1000 nM) | 107% | 34.6% | 35.5% | 83.3% | 49.9% | 0.82% | 61.9% | 73.2% | 21.2% | 71% | 59.5% | 80.6% | 118% | 34.6% | 40% | 89.3% | 33% | 63.6% | 61.2% | 115% | 85% | 72.7% | 86.6% | 76.2% | 96.4% | 85% | -16% | 106% | 102% | 99.4% | 104% | 80.8% | 95% | 104% | 49.4% | 101% | 96.1%
CN1CCN(CCOc2cc(OC3CCOCC3)c3c(Nc4c(Cl)ccc5c4OCO5)ncnc3c2)CC1 [Saracatinib] (1000 nM) | 41.5% | 89.9% | 92.7% | 83.3% | 61.7% | 94% | 81.9% | 96.1% | 74.3% | 64.6% | 89.7% | 88.2% | 84.1% | 93.9% | 119% | 53.2% | 79.2% | 71.1% | 74.6% | 106% | 93% | 86.5% | 68.5% | 98.9% | 96.6% | 83.4% | 68.5% | 77.6% | 93.9% | 101% | 99.3% | 77.6% | 96% | 86.8% | 181% | 96.4% | 76.8%
Cn1cncc1[C@@](N)(c1ccc(Cl)cc1)c1ccc2c(c1)c(-c1cccc(Cl)c1)cc(=O)n2C [Tipifarnib] (1000 nM) | 86.9% | 75.1% | 59.4% | 74.5% | 110% | 66.4% | 79.4% | 80.6% | 52.2% | 90.6% | 73.8% | 73.8% | 66.8% | 65.1% | 111% | 76.4% | 74.9% | 80.5% | 80.5% | 73.9% | 136% | 45.6% | 98.8% | 95.6% | 97.4% | 108% | 57.2% | 103% | 101% | 107% | 96% | 94.4% | 90.8% | 102% | 105% | 100% | 110%
CC[C@]1(O)C[C@H]2CN(CCc3c([nH]c4ccccc34)[C@@](C(=O)OC)(c3cc4c(cc3OC)N(C=O)[C@H]3[C@@](O)(C(=O)OC)[C@H](OC(C)=O)[C@]5(CC)C=CCN6CC[C@]43[C@@H]65)C2)C1 [Vincristine] (100 nM) | 72.7% | 42.1% | 13.6% | 72.8% | 40.8% | 71.1% | 63.2% | 24.1% | 46.3% | 53.2% | 45.8% | 57.9% | 47.8% | 28.6% | 21.6% | 79.3% | 32.9% | 58.5% | 60.9% | -44.4% | 44.2% | 62.1% | 69.3% | 100% | 86.3% | 62.5% | 40.1% | 3.37% | 15.3% | 97.3% | 82.8% | 73.6% | 82.2% | 93% | 38.5% | 75.3% | 94.3%
